Biological target: T1, DCLK1 (Doublecortin-like kinase 1) (Homo sapiens, UniProt O15075)
T1 construct: kinase domain (KD)
T1 sequence (O15075 390-647 limits assumed): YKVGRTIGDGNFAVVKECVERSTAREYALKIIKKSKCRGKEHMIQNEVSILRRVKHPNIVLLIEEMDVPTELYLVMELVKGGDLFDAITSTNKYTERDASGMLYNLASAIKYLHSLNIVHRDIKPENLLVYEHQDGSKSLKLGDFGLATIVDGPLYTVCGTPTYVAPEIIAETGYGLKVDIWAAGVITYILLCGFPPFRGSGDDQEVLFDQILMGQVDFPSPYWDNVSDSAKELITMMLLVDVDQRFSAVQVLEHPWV
Experiment: SPR (Biacore X-100, kinase domain immobilized on CM5 chip)
Assay type: binding

Kd: 1920 nM
Compound: CCN1CCN(Cc2ccc(Nc3ncc(F)c(-c4cc(F)c5nc(C)n(C(C)C)c5c4)n3)nc2)CC1 [6ZV, Abemaciclib]
